In this data set the test system is CCRIS mutagenicity, Ames/micronucleus/aberration tests. In words: CCRIS mutagenicity studies. Conditions: Test System: AMES SALMONELLA TYPHIMURIUM
Where [1] appears, read: Strain/Indicator: TA98, Metabolic Activation: NONE, Method: PREINCUBATION
Setting [2] is: Strain/Indicator: TA100, Metabolic Activation: NONE, Method: PREINCUBATION
Where [3] appears, read: Strain/Indicator: TA100, Metabolic Activation: NONE, Method: STANDARD PLATE.
Setting [4] is: Strain/Indicator: TA1535, Metabolic Activation: NONE, Method: STANDARD PLATE.
The mark [5] stands for this setting: Strain/Indicator: TA1537, Metabolic Activation: NONE, Method: STANDARD PLATE.
[6] abbreviates: Strain/Indicator: TA1538, Metabolic Activation: NONE, Method: STANDARD PLATE.

Calls of active or inactive are those of the source. No rule for the calls is given here.

`Cc1cc(C)cc(N)c1`: the mutagenic call is “inactive; negative” (Strain/Indicator: TA97, Metabolic Activation: HAMSTER, LIVER, S-9, AROCLOR 1254 (10%), Method: PREINCUBATION); “inactive; negative” (Strain/Indicator: TA97, Metabolic Activation: NONE, Method: PREINCUBATION); “inactive; negative” (Strain/Indicator: TA97, Metabolic Activation: RAT, LIVER, S-9, AROCLOR 1254 (10%), Method: PREINCUBATION); “inactive; negative” (Strain/Indicator: TA98, Metabolic Activation: HAMSTER, LIVER, S-9, AROCLOR 1254 (10%), Method: PREINCUBATION); “inactive; negative” under setting [1]; “inactive; negative” (Strain/Indicator: TA98, Metabolic Activation: RAT, LIVER, S-9, AROCLOR 1254 (10%), Method: PREINCUBATION). Further, the mutagenic call under setting [2] was “inactive; negative”; the mutagenic call (Strain/Indicator: TA100, Metabolic Activation: RAT, LIVER, S-9, AROCLOR 1254 (10%), Method: PREINCUBATION) is “inactive; negative”; the mutagenic call (Strain/Indicator: TA1535, Metabolic Activation: HAMSTER, LIVER, S-9, AROCLOR 1254 (10%), Method: PREINCUBATION) was “inactive; negative”; the mutagenic call (Strain/Indicator: TA1535, Metabolic Activation: NONE, Method: PREINCUBATION) is “inactive; negative”; the mutagenic call (Strain/Indicator: TA1535, Metabolic Activation: RAT, LIVER, S-9, AROCLOR 1254 (10%), Method: PREINCUBATION) was “inactive; negative”; the mutagenic call (Strain/Indicator: TA1537, Metabolic Activation: HAMSTER, LIVER, S-9, AROCLOR 1254 (10%), Method: PREINCUBATION) was “inactive; negative”.

As to `O=Cc1c(O)cc2c(c1O)C(=O)c1ccccc1C2=O`, the mutagenic call was “inactive; negative” under setting [1]; “inactive; negative” (Strain/Indicator: TA98, Metabolic Activation: RAT, LIVER, S-9, PCB, Method: PREINCUBATION); “inactive; negative” under setting [2]; “inactive; negative” (Strain/Indicator: TA100, Metabolic Activation: RAT, LIVER, S-9, PCB, Method: PREINCUBATION).

For `CC1=CC(=O)C(C(C)C)=CC1=O`, the mutagenic call under setting [1] was “inactive; negative”; the mutagenic call (Strain/Indicator: TA98, Metabolic Activation: RAT, LIVER, S-9, PHENOBARBITAL AND 5,6-BENZOFLAVONE, Method: PREINCUBATION) is “inactive; negative”; the mutagenic call under setting [2] is “inactive; negative”; the mutagenic call (Strain/Indicator: TA100, Metabolic Activation: RAT, LIVER, S-9, PHENOBARBITAL AND 5,6-BENZOFLAVONE, Method: PREINCUBATION) was “inactive; negative”; the mutagenic call (Strain/Indicator: TA102, Metabolic Activation: NONE, Method: PREINCUBATION) was “inactive; negative”; the mutagenic call (Strain/Indicator: TA102, Metabolic Activation: RAT, LIVER, S-9, PHENOBARBITAL AND 5,6-BENZOFLAVONE, Method: PREINCUBATION) was “inactive; negative”. The mutagenic call was “inactive; negative” (Strain/Indicator: TA104, Metabolic Activation: RAT, LIVER, S-9, PHENOBARBITAL AND 5,6-BENZOFLAVONE, Method: PREINCUBATION); “active; positive” (Strain/Indicator: TA2637, Metabolic Activation: NONE, Method: PREINCUBATION); “inactive; negative” (Strain/Indicator: TA2637, Metabolic Activation: RAT, LIVER, S-9, PHENOBARBITAL AND 5,6-BENZOFLAVONE, Method: PREINCUBATION).

Turning to `Oc1ccc2c(O)c3ccccc3cc2c1O`, the mutagenic call runs as follows: (Strain/Indicator: TA98, Metabolic Activation: RAT, LIVER, S-9, AROCLOR 1254, Method: STANDARD PLATE) “inactive; negative”; under setting [3], “inactive; negative”; (Strain/Indicator: TA100, Metabolic Activation: RAT, LIVER, S-9, AROCLOR 1254, Method: STANDARD PLATE) “inactive; negative”; under setting [4], “inactive; negative”; (Strain/Indicator: TA1535, Metabolic Activation: RAT, LIVER, S-9, AROCLOR 1254, Method: STANDARD PLATE) “inactive; negative”; under setting [5], “active; positive”. Also, the mutagenic call by setting is: under setting [6], “inactive; negative”; (Strain/Indicator: TA1538, Metabolic Activation: RAT, LIVER, S-9, AROCLOR 1254, Method: STANDARD PLATE) “inactive; negative”.

On to `O=[N+]([O-])c1c(-c2ccc(Cl)cc2)nc2n1CCS2`, for which the mutagenic call was “inactive; negative” (Strain/Indicator: TA98, Metabolic Activation: NONE, Method: STANDARD PLATE); “active; positive” under setting [3]; “inactive; negative” under setting [4]; “active; positive” under setting [5]; “inactive; negative” under setting [6].

For the origin of these results see PubChem BioAssay AID1259407 (Chemical Carcinogenesis Research Information System (CCRIS), 2018).
